We go through 34 compounds from ChEMBL document CHEMBL1139918, “Novel series of substituted biphenylmethyl urea derivatives as MCH-R1 antagonists for the treatment of obesity” (Bioorg Med Chem, 2007).

The target in assay [1] is T1, Melanin-concentrating hormone receptor 1 (Homo sapiens, UniProt Q99705). The note with it: HEK293.
Description: Antagonist activity at human MCH1 receptor expressed in HEK cells after 45 mins by [35S]GTP-gamma-S binding assay
Assay [2] deals with T1, Melanin-concentrating hormone receptor 1. Nature of the assay: Displacement of [3H]SNAP from human MCH1 receptor expressed in HEK cells. In kind it is cell-based, HEK293. Background: In a radioligand displacement assay an active substance lowers the binding of a labelled ligand.

A value given as a limit tells only on which side of the number the result lay.
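Throughout, for pKb: antagonism measured by [35S]GTPγS binding in HEK cells carrying human MCH1 receptor, 45 min incubation.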

T1 sequence (Q99705 whole entry): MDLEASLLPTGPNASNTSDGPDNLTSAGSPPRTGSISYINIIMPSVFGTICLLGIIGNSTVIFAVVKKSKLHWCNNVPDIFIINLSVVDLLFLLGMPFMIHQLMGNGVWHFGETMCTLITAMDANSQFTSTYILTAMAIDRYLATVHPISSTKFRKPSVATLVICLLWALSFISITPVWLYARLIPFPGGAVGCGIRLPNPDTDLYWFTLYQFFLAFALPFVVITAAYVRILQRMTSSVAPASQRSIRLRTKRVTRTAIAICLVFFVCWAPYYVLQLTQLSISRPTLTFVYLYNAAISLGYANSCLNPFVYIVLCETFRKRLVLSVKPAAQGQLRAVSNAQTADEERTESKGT

On to `Cc1ccc(CN2CCC(NC(=O)NCc3ccc(-c4ccc(F)cc4)cc3)CC2)cc1`, for which the negative-log Kb (pKb) (in general, −log10 of the Kb, conventionally taken in molar units) in assay [1] was 6.71. The Ki (as a rule, the dissociation constant of the complex between target and ligand, obtained from inhibition or displacement) in assay [2] (read-out: Ki) was 0.545 µM; in assay [2] (read-out: Log Ki (converted)), 0.543 µM.
The compound `CCC(COC(C)=O)(COC(C)=O)NC(=O)N(CCC1CCN(Cc2ccc(C)cc2)CC1)Cc1ccc(-c2ccc(OC)cc2)cc1` yielded a negative-log Kb (pKb) in assay [1] of 6.86. For the same compound, in assay [2] (read-out: Ki), the Ki stood at 0.17 µM.
Take `CCC(COC(C)=O)(COC(C)=O)NC(=O)N(CCC1CCN(Cc2ccc(C)cc2)CC1)Cc1ccc(-c2cccc(C#N)c2)cc1`: the Ki in assay [2] (read-out: Ki) turned out to be 1.08 µM.
As for `Cc1ccc(CN2CCC(NC(=O)N(CC(=O)C(C)(C)O)Cc3ccc(-c4ccc(F)cc4)cc3)CC2)cc1`, in assay [1], the pKb came to 5.34. Besides, the Ki in assay [2] (read-out: Ki) worked out at 5.86 µM.
`Cc1ccc(CN2CCC(NC(=O)NCc3ccc(-c4ccccc4)cc3)CC2)cc1` displayed a pKb in assay [1] of 5.97. The Ki in assay [2] (read-out: Ki) is 2.64 µM; in assay [2] (read-out: Log Ki (converted)), 2.66 µM.
The like results for `Cc1ccc(CN2CCC(CCN(Cc3ccc(-c4ccc(F)cc4)cc3)C(=O)NC(C)C)CC2)cc1` were, in that order, 6.42, 0.314 µM and 0.313 µM.
`COc1ccc(-c2ccc(CN(CCC3CCN(Cc4ccc(C)cc4)CC3)C(=O)NC(C)(C)CO)cc2)cc1` displayed a pKb in assay [1] of 7.06. Further, the Ki in assay [2] (read-out: Ki) was 0.204 µM.
Compound `CCC(CO)(CO)NC(=O)N(CCC1CCN(Cc2ccc(C)cc2)CC1)Cc1ccc(-c2ccc(OC)cc2)cc1` registered a pKb in assay [1] of 6.93. Besides, the Ki in assay [2] (read-out: Ki) was found to be 0.143 µM.
In assay [1], `COc1ccc(-c2ccc(CNC(=O)NC3CCN(Cc4ccc(C)cc4)CC3)cc2)cc1` registered a pKb of 6.36. The inhibitory constant (Ki) in assay [2] (read-out: Ki) is 1.46 µM.
The like results for `CCC(CO)(CO)NC(=O)N(CCC1CCN(Cc2ccc(C)cc2)CC1)Cc1ccc(-c2ccccc2)cc1` were, in that order, 6.83 and 0.173 µM.
The like results for `CC(=O)OCC(C)(C)NC(=O)N(CCC1CCN(Cc2ccc(C)cc2)CC1)Cc1ccc(-c2ccccc2)cc1` were, in that order, 6.43 and 0.947 µM.
In assay [1], `CC(=O)OCC(C)(C)NC(=O)N(CCC1CCN(Cc2ccc(C)cc2)CC1)Cc1ccc(-c2cccc(C#N)c2)cc1` yielded a pKb of 6.63. The inhibitory constant (Ki) in assay [2] (read-out: Ki) worked out at 0.254 µM.
The like results for `CCC(CO)(CO)NC(=O)N(CCC1CCN(Cc2ccc(C)cc2)CC1)Cc1ccc(-c2ccccc2OC)cc1` were, in that order, 6.65 and 0.167 µM.
For `COc1ccc(-c2ccc(CN(CC(=O)C(C)(C)O)C(=O)NC3CCN(Cc4ccc(C)cc4)CC3)cc2)cc1`, in assay [1], the pKb was less than 5.
For the compound `CCC(COC(C)=O)(COC(C)=O)NC(=O)N(CCC1CCN(Cc2ccc(C)cc2)CC1)Cc1ccc(-c2ccccc2OC)cc1`, the Ki in assay [2] (read-out: Ki) amounted to 1.2 µM.
Compound `COc1ccc(-c2ccc(CN(CCC3CCN(Cc4ccc(C)cc4)CC3)C(=O)NC(C)C)cc2)cc1` came in with a pKb in assay [1] of 6.33. The Ki in assay [2] (read-out: Ki) stood at 0.273 µM.
The like results for `COc1ccccc1-c1ccc(CNC(=O)NC2CCN(Cc3ccc(C)cc3)CC2)cc1` were, in that order, 6.19 and 0.425 µM.
The like results for `COc1ccccc1-c1ccc(CN(CCC2CCN(Cc3ccc(C)cc3)CC2)C(=O)NC(C)(C)COC(C)=O)cc1` were, in that order, 6.14 and 0.215 µM.
In the case of `Cc1ccc(CN2CCC(NC(=O)N(CC(=O)C(C)(C)O)Cc3ccc(-c4cccc(C#N)c4)cc3)CC2)cc1`, in assay [1], the negative-log Kb (pKb) stood at 5.3. In assay [2] (read-out: Ki), the Ki is 6.38 µM.
As for `Cc1ccc(CN2CCC(CCN(Cc3ccc(-c4ccccc4)cc3)C(=O)NC(C)C)CC2)cc1`, the Ki in assay [2] (read-out: Ki) is 0.258 µM.
Turning to `CCC(CO)(CO)NC(=O)N(CCC1CCN(Cc2ccc(C)cc2)CC1)Cc1ccc(-c2ccc(F)cc2)cc1`, the pKb in assay [1] came to 6.54. Further, in assay [2] (read-out: Ki), the inhibition constant (Ki) is 0.149 µM.
The like results for `CCC(COC(C)=O)(COC(C)=O)NC(=O)N(CCC1CCN(Cc2ccc(C)cc2)CC1)Cc1ccc(-c2ccccc2)cc1` were, in that order, 6.58 and 0.388 µM.
The like results for `COc1ccccc1-c1ccc(CN(CC(=O)C(C)(C)O)C(=O)NC2CCN(Cc3ccc(C)cc3)CC2)cc1` were, in that order, 5.43 and 6.05 µM.
The like results for `Cc1ccc(CN2CCC(CCN(Cc3ccc(-c4cccc(C#N)c4)cc3)C(=O)NC(C)(C)CO)CC2)cc1` were, in that order, 7.08 and 0.043 µM.
In turn, `Cc1ccc(CN2CCC(CCN(Cc3ccc(-c4ccccc4)cc3)C(=O)NC(C)(C)CO)CC2)cc1` displayed a pKb in assay [1] of 6.2. The inhibitory constant (Ki) in assay [2] (read-out: Ki) amounted to 0.144 µM.
The like results for `Cc1ccc(CN2CCC(CCN(Cc3ccc(-c4ccc(F)cc4)cc3)C(=O)NC(C)(C)CO)CC2)cc1` were, in that order, 7.38 and 0.0966 µM.
As for `Cc1ccc(CN2CCC(NC(=O)NCc3ccc(-c4cccc(C#N)c4)cc3)CC2)cc1`, in assay [1], the pKb was 6.38. Further, the Ki in assay [2] (read-out: Ki) is 0.186 µM.
Compound `COc1ccccc1-c1ccc(CN(CCC2CCN(Cc3ccc(C)cc3)CC2)C(=O)NC(C)(C)CO)cc1` registered a negative logarithm of the Kb (pKb) in assay [1] of 6.88. In addition, the Ki in assay [2] (read-out: Ki) is 0.251 µM.
In turn, `CCC(COC(C)=O)(COC(C)=O)NC(=O)N(CCC1CCN(Cc2ccc(C)cc2)CC1)Cc1ccc(-c2ccc(F)cc2)cc1` came in with a pKb in assay [1] of 6.71. In assay [2] (read-out: Ki), the Ki was determined as 0.214 µM.
The like results for `COc1ccc(-c2ccc(CN(CCC3CCN(Cc4ccc(C)cc4)CC3)C(=O)NC(C)(C)COC(C)=O)cc2)cc1` were, in that order, 6.19 and 0.595 µM.
The compound `CC(=O)OCC(C)(C)NC(=O)N(CCC1CCN(Cc2ccc(C)cc2)CC1)Cc1ccc(-c2ccc(F)cc2)cc1` yielded a pKb in assay [1] of 6.39. Besides, the Ki in assay [2] (read-out: Ki) is 0.421 µM.
For the compound `Cc1ccc(CN2CCC(CCN(Cc3ccc(-c4cccc(C#N)c4)cc3)C(=O)NC(C)C)CC2)cc1`, the negative logarithm of the Kb (pKb) in assay [1] worked out at 6. In assay [2] (read-out: Ki), the Ki came to 0.509 µM.
For the compound `COc1ccccc1-c1ccc(CN(CCC2CCN(Cc3ccc(C)cc3)CC2)C(=O)NC(C)C)cc1`, the pKb in assay [1] is less than 5.
For `CCC(CO)(CO)NC(=O)N(CCC1CCN(Cc2ccc(C)cc2)CC1)Cc1ccc(-c2cccc(C#N)c2)cc1`, the pKb in assay [1] turned out to be 5.41. Moreover, the Ki in assay [2] (read-out: Ki) stood at 0.769 µM.
